This passage reports IC50 and EC50 results from ChEMBL document CHEMBL1128013, “The synthesis and biological activity of tetrahydroquinoline angiotensin II antagonists containing a substituted biphenyltetrazole group” (Bioorg Med Chem Lett, 1994).

The target in assay [1] is T1, Type-1 angiotensin II receptor (Cavia porcellus, UniProt Q9WV26).
T1 sequence (Q9WV26 whole entry): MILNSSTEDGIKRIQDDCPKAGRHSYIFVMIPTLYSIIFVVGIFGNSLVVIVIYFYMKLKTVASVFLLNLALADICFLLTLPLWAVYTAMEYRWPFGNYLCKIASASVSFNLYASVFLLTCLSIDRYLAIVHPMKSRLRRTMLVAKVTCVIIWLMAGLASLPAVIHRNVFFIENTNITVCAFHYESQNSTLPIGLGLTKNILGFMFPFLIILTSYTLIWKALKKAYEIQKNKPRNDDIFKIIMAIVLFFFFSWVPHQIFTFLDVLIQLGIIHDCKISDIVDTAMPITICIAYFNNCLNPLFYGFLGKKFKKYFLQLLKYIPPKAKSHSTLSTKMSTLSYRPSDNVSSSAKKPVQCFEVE
Description: Compound was tested for in vitro inhibition of specific binding of [I-125]AII to AT1 receptor in guinea pig adrenal membrane preparation. The format is cell membranes.

Assay [2] has as its system Rattus norvegicus. Description: Tested in vivo for inhibition of pressor response induced by infusion of AII in conscious normotensive rats, when given intravenously. The format is functional, organism-based.
The target of assay [3] is T1, Type-1 angiotensin II receptor. The assay is described as follows: Compound was tested for in vitro inhibition of specific binding of [I-125]AII to Angiotensin II receptor, type 1 in guinea pig adrenal membrane preparation. The format is cell membranes.

pIC50: −log10 of the molar value.

`CCc1cc(OCc2ccc(-c3ccccc3-c3nn[nH]n3)c(Cl)c2)c2c(n1)CCCC2` had a pIC50 in assay [1] of 8.15. Besides, in assay [2], the EC50 stood at 0.52 mg/kg. On to `CCc1cc(OCc2ccc(-c3ccccc3-c3nn[nH]n3)cc2F)c2c(n1)CCCC2`, for which the pIC50 in assay [3] was 8.05. The EC50 in assay [2] was found to be 0.22 mg/kg.

Consider `CCc1cc(OCc2ccc(-c3ccccc3-c3nn[nH]n3)cc2)c2c(n1)CCCC2`, for which the pIC50 in assay [3] was 8.30. This compound yielded an EC50 in assay [2] of 0.39 mg/kg. In turn, `CCc1cc(OCc2ccc(-c3ccc(Cl)cc3-c3nnn[nH]3)cc2)c2c(n1)CCCC2` had a pIC50 in assay [3] of 7.03. `CCc1cc(OCc2ccc(-c3cc(OC)ccc3-c3nn[nH]n3)cc2)c2c(n1)CCCC2` had a pIC50 in assay [3] of 7.17.

Regarding `CCc1cc(OCc2ccc(-c3c(C)cccc3-c3nn[nH]n3)cc2)c2c(n1)CCCC2`, the pIC50 in assay [3] is 7.54. The EC50 in assay [2] is 0.48 mg/kg. On to `CCc1cc(OCc2ccc(-c3ccccc3-c3nn[nH]n3)c(C(=O)OC)c2)c2c(n1)CCCC2`, for which the pIC50 in assay [1] is 7.70. Also, the EC50 in assay [2] came to 0.11 mg/kg.

For the compound `CCc1cc(OCc2ccc(-c3ccc(OC)cc3-c3nnn[nH]3)cc2)c2c(n1)CCCC2`, the pIC50 in assay [3] is 6.85. Turning to `CCc1cc(OCc2ccc(-c3ccccc3-c3nn[nH]n3)c(OC)c2)c2c(n1)CCCC2`, in assay [1], the pIC50 is 8.10. This compound gave an EC50 in assay [2] of 0.39 mg/kg. Regarding `CCc1cc(OCc2ccc(-c3ccccc3-c3nn[nH]n3)c(C(C)=O)c2)c2c(n1)CCCC2`, the pIC50 in assay [1] was 8.22. In assay [2], this compound showed an EC50 of 0.1 mg/kg. As for `CCc1cc(OCc2ccc(-c3ccc(C)cc3-c3nn[nH]n3)cc2)c2c(n1)CCCC2`, the negative-log IC50 (pIC50) in assay [3] is 7.27. With `CCc1cc(OCc2ccc(-c3ccccc3-c3nn[nH]n3)c(C(=O)O)c2)c2c(n1)CCCC2`, the pIC50 in assay [1] was 7.57. In assay [2], this compound yielded an EC50 of 0.24 mg/kg. For the compound `CCCCc1nc(Cl)c(CO)n1Cc1ccc(-c2ccccc2-c2nnn[nH]2)cc1` [LOSARTAN], the EC50 in assay [2] amounted to 0.65 mg/kg.

The term pIC50 denotes the negative decadic logarithm of the IC50, by convention in mol/L. Higher therefore signals a small IC50.
